Experimental data taken from PMC11530689, “Anti colorectal cancer activity and in silico studies of novel pyridine nortopsentin analog as cyclin dependent kinase 6 inhibitor” (Scientific Reports, 2024).

Tests used:
[1] = tested on: P388 cell line; design: method as in PMID 11425579; conditions: cited from earlier work
[2] = tested on: A549 cell line; design: method as in PMID 11425579; conditions: cited from earlier work
[3] = tested on: CDK1; design: method as in PMID 28688277; conditions: cited from earlier work
[4] = tested on: MCF7 cancer cell line; design: method as in PMID 28688277; conditions: cited from earlier work
[5] = tested on: HCT-116 cells; assay: MTT assay, IC50 determination; format: cell-based; conditions: Homo sapiens, HCT-116, colorectal cancer cells, comparator
Experimental: HCT-116 (colon cancer cell line) was obtained from the American Type Culture Collection (ATCC). The cancer cell line was grown in Dulbecco’s Modified Eagle’s Medium (DMEM) supplemented with 10% fetal bovine serum (FBS), penicillin/streptomycin (100 U/mL and 100 μg/mL, respectively) and 2 mM L-glutamine. The cells were maintained at 37 °C in 5% CO2.
The cytotoxic activity of nortopsintin analogs (4a–4j) was determined by the national cancer institute (NCI, Bethesda, Maryland, USA) against 60 different cancer cell lines at a single concentration of (10^−5 M). For the determination of IC50 value, we used MTT assay kit (Sigma) according to the manufacturer’s protocol. HCT-116 cells were seeded into a 96-well plate at a concentration of 20,000 cells/well. After 24 h, the media was aspirated and replaced with serum-free media containing serial dilutions of the 4i compound. The cells were treated for 48 h in triplicates. […] The percentage of cytotoxicity was calculated using the following equation: % Cytotoxicity = [1 − (AVx/AVNC)] × 100.
Where, AVx denotes the average absorbance of the sample and AVNC denotes the average absorbance of the negative control. The absorbance was measured at 570 nm with reference at 690 nm.

For `COc1ccc2c(-c3cc(C(F)(F)F)cc(-c4cn(S(=O)(=O)c5ccc(C)cc5)c5cc(OC)ccc45)n3)cn(S(=O)(=O)c3ccc(C)cc3)c2c1` [II, bis(indolyl)-4-trifluoromethylpyridine], the IC50 [1] is listed as 4.3 µM and the IC50 [2] is listed as 1.7 µM.

In the case of `COCCn1cc(-c2nc(-c3c[nH]c4ncccc34)cs2)c2cc(OC)ccc21` [III], the “CDK1 activity in vitro” value [3] is given as “inhibiting CDK1 activity in vitro” and the antitumor activity [4] is given as “demonstrated antitumor activity”.

Work on `COc1cccc2c1C(=O)c1c(O)c3c(c(O)c1C2=O)C[C@@](O)(C(=O)CO)C[C@@H]3O[C@H]1C[C@H](N)[C@H](O)[C@H](C)O1` [doxorubicin, reference compound] yielded an IC50 [5] of 10.1 µM.
